We go through six molecules from patent publication US20250009627A1, “THERAPEUTIC AND NON-THERAPEUTIC USES OF A PERSONAL CLEANSING COMPOSITION AND METHODS OF TREATMENT” (The Procter & Gamble Company, priority 2023, published 2025).

Experiment [1] deals with Escherichia coli ATCC25922. The experiment in a line: In vitro Minimum Inhibitory Concentration (MIC) testing. The class given is cell-based. As to conditions: Escherichia coli ATCC25922; pH of the assay 7.2; read-out: Minimum Inhibition Concentration MIC. As to the method:
(§1) The in vitro Minimum Inhibitory Concentration (MIC) Assay is a technique for determining the lowest concentration of a particular compound needed to prevent growth of microorganism. Different microorganisms were used to evaluate bacterial inhibition benefits for sulfate surfactants (Table 1) [table] Microorganisms are cultured and maintained in different culture medium. Each respective microorganism stock solution is diluted to 10^5 to 10^6 CFU/mL in a respective growth medium. 180 μl broth with the respective target microorganism is allocated into 96 well plates. Sodium oleyl sulfate prepared from two different synthesis batches (Ex. 1A and Ex. 1B), sodium octyl sulfate, sodium decyl sulfate, sodium lauryl sulfate were mixed respectively with in Deionized (DI) water. Octadecyl sulfate sodium was mixed in Dimethyl sulfoxide (DMSO). Two folds serial dilution are applied to each respective active by mixing 100 μl active stock solution (from 1 wt. %) plus 100 μl sterilized DI water or DMSO in 96 well plates (Nunc™ MicroWell™ 96-Well, CAT. No. 167008). For each assay, 0.001-1 wt. % treatment solutions are prepared for each individual active. Micropipettes are used to transfer 20 μl of actives at different concentration into each well with 180 μl broth with the respective target microorganisms. The 96 well plates with test microorganisms and test actives are incubated at 37° C. • a) E. coli are incubated for overnight 16 hours to 24 hour. • b) Corynebacterium minutissimum is incubated for two days. • c) Cutibacterium acnes is incubated for two days under anaerobic conditions. After incubation, microorganism growth is determined in presence of test actives by visual inspection or spectrophotometer by OD600 (absorbance at 600 nm using Tecan M200 Infinite Pro Microplate Reader) reading in comparison with positive control (broth with individual microorganism) and negative control (Broth only). MIC values are presented as parts per million (ppm) for different actives.

In experiment [2] the test system is Staphylococcus aureus ATCC6538. The experiment is described as above. In kind it is cell-based. As to conditions: for MIC: read-out: Minimum Inhibition Concentration MIC. As for the experimental part:
as §1

In experiment [3] the test system is Cutibacterium acne 2044 NIA (skin isolate). The experiment is described as above. The class given is cell-based, Cutibacterium acnes. As to conditions: for MIC: read-out: Minimum Inhibition Concentration MIC. As for the experimental part:
The in vitro Minimum Inhibitory Concentration (MIC) Assay is a technique for determining the lowest concentration of a particular compound needed to prevent growth of microorganism. Different microorganisms were used to evaluate bacterial inhibition benefits for sulfate surfactants (Table 1)
Microorganisms are cultured and maintained in different culture medium. Each respective microorganism stock solution is diluted to 10^5 to 10^6 CFU/mL in a respective growth medium. 180 μl broth with the respective target microorganism is allocated into 96 well plates.
Sodium oleyl sulfate prepared from two different synthesis batches (Ex. 1A and Ex. 1B), sodium octyl sulfate, sodium decyl sulfate, sodium lauryl sulfate were mixed respectively with in Deionized (DI) water. Octadecyl sulfate sodium was mixed in Dimethyl sulfoxide (DMSO).
Two folds serial dilution are applied to each respective active by mixing 100 μl active stock solution (from 1 wt. %) plus 100 μl sterilized DI water or DMSO in 96 well plates (Nunc™ MicroWell™ 96-Well, CAT. No. 167008). For each assay, 0.001-1 wt. % treatment solutions are prepared for each individual active.
Micropipettes are used to transfer 20 μl of actives at different concentration into each well with 180 μl broth with the respective target microorganisms.
The 96 well plates with test microorganisms and test actives are incubated at 37° C. • a) E. coli are incubated for overnight 16 hours to 24 hour. • b) Corynebacterium minutissimum is incubated for two days. • c) Cutibacterium acnes is incubated for two days under anaerobic conditions.
After incubation, microorganism growth is determined in presence of test actives by visual inspection or spectrophotometer by OD600 (absorbance at 600 nm using Tecan M200 Infinite Pro Microplate Reader) reading in comparison with positive control (broth with individual microorganism) and negative control (Broth only). MIC values are presented as parts per million (ppm) for different actives.
C. acne SK137 and C. acne 2044NIA (P&G skin isolate) are from Type IA-2 Clade by whole genome sequencing, which is reported to be associated with skin acne conditions.

The subject of experiment [4] is Corynebacterium minutissimum ATCC 23348. The experiment is described as above. In kind it is cell-based. As to conditions: Corynebacterium minutissimum ATCC 23348; for MIC: ATCC23348, read-out: Minimum Inhibition Concentration MIC. As for the experimental part: as §1, with “plates. For instance, Corynebacterium minutissimum ATCC 23348 is cultured on tryptic soy agar (TSA) (Oxoid CM0131) over 24 hours. The single colonies are then transferred into 20 mL Tryptone Soy Broth (Oxoid CM0129B—TSB) and cultured overnight at 200 rpm/min, 37° C. Bacterial cell in broth will be diluted to 10^5 to 10^6 CFU/mL in TSB. 180 μL of this bacterium-MHB mix is added to a 96 well flat-bottomed plate (Nunc™ MicroWell™ 96-Well, CAT. No. 167008).” for “plates.”

The test system of a further experiment is Cutibacterium acne SK137. Described as above. In kind it is cell-based, Cutibacterium acnes. Particulars: for MIC: Cutibacterium, SK137, Cutibacterium acne SK137, anaerobic, read-out: Minimum Inhibition Concentration MIC. As for the experimental part:
as §1

The test system of a further experiment is E. coli ATCC25922. The experiment is described as follows: Kill Rate Test in liquid (suspension time-kill testing). The class given is cell-based, Escherichia coli. The text has this: The suspension time-kill test is a method to directly inoculate a liquid test substance with a high concentration of test microorganisms and then determine the percentage of killed over time, normally represented as log CFU reduction. The objective is to measure the biocidal potential of a liquid antimicrobial active or formulation.
E. coli ATCC25922 is streaked on Tryptic Soy Agar (TSA) Plates and cultured overnight. Pick up one colony of E. coli ATCC25922 and subculture bacterial cell in Tryptic Soy Broth (TSB) @ 200 rpm/min, 37° C. for 12-16 hours. After culturing, 1 mL bacterial cells in broth are pipetted into 2 mL tubes. Samples are centrifuged for 2 mins at 13000 rpm/min. Cell supernatant are discarded, and bacterial cells are resuspended in 1 mL Saline @ 10^8 to 10^9 CFU/mL. 1 mL liquid antimicrobial active to be tested under different concentrations is prepared: 20 mM acetate buffers are used to maintain the test solutions at a pH between 4.0 and 5.7. 10 mM phosphate buffer is used to maintain the test solution at a pH around 7.2. 20 mM Tris-HCl buffers are used to maintain the test solutions at a pH between 8.0 and 9.0. 1 mL saline (NaCl 0.9 wt. %) is used to as negative control in the study. 50 μl of 10^8 to 10^9 CFU/mL bacterial cells are added into each treatment and saline control. Samples were thoroughly mixed by vertexing 5 seconds. After incubating 30 minutes, 50 μl liquid from each treatment sample and saline control are pipetted out into for Total Viable Count Vial (NEOGEN). All measurements are done in duplicates. The Detection Time (DT) for Total Viable Count Vial is measured by Soleris® Next Generation (NEOGEN) system. DT values are averaged for each treatment and control for further calculation. DT time for each sample is converted to Log (viable cell number) by using algorithm generated for E. coli ATCC25922:
Biocidal potential of different actives at different concentrations and at different pHs in a liquid solution is measured by: […]

Take `CCCCCCCC/C=C\CCCCCCCCOS(=O)(=O)[O-].[Na+]` [Ex. 1A, sodium oleyl sulfate]: the MIC was over 1000 µg/mL in experiment [1]; 3.9 µg/mL in experiment [2] (Staphylococcus aureus ATCC6538); 7.8 µg/mL in experiment [3]; 3.9 µg/mL in experiment [4]; 3.9 µg/mL in the experiment with Cutibacterium acne SK137.

Take `CCCCCCCC/C=C\CCCCCCCCOS(=O)(=O)[O-].[Na+]` [Ex. 1B, sodium oleyl sulfate]: the “bactericidal activity against E. coli ATCC25922 (log CFU reduction)” value in the experiment with E. coli ATCC25922 (12.5 ppm, test pH 4, 30 minutes) is listed as 4.3; with E. coli ATCC25922 (12.5 ppm, test pH 5.1, 30 minutes), 0; with E. coli ATCC25922 (50 ppm, test pH 4, 30 minutes), 6.6; in the experiment with E. coli ATCC25922 (50 ppm, test pH 5.1, 30 minutes) it was under 0.3; in the experiment on E. coli ATCC25922 (200 ppm, test pH 4, 30 minutes) it was 6.6; in the experiment on E. coli ATCC25922 (200 ppm, test pH 5.1, 30 minutes) it was under 0.3. Moreover, the “Minimum Inhibition Concentration MIC” value in experiment [2] (Staphylococcus aureus ATCC6538) is 3.9 ppm; in experiment [3], 7.8 ppm; in experiment [4] it was 3.9 ppm; in the experiment with Cutibacterium acne SK137 (Cutibacterium acne SK137, anaerobic, sulfate) it was 7.8 ppm.

For the molecule `CCCCCCCCCCCCCCCCCCOS(=O)(=O)[O-].[Na+]` [octadecyl sulfate sodium salt], the MIC in experiment [1] was over 1000 µg/mL; in experiment [2] (Staphylococcus aureus ATCC6538), over 500 µg/mL; in experiment [3], over 500 µg/mL; in experiment [4] it was over 500 µg/mL; in the experiment with Cutibacterium acne SK137, over 500 µg/mL. For the same molecule, the “inhibition of S. aureus (in words)” value in experiment [2] is “ineffective”. For the same molecule, the “bacterial inhibition of Cutibacterium acne (in words)” value in the experiment with Cutibacterium acne SK137 (two strains (SK137, 2044 NIA)) is “no effect”.

With `CCCCCCCCCCOS(=O)(=O)[O-].[Na+]` [sodium decyl sulfate], the MIC is over 1000 µg/mL in experiment [1]; over 1000 µg/mL in experiment [2] (Staphylococcus aureus ATCC6538); over 500 µg/mL in experiment [3]; over 500 µg/mL in experiment [4]; over 500 µg/mL in the experiment on Cutibacterium acne SK137. Also, the “inhibition of S. aureus (in words)” value in experiment [2] was “No inhibition”.

For `CCCCCCCCCCCCOS(=O)(=O)[O-].[Na+]` [sodium lauryl sulfate], the MIC in experiment [1] was over 1000 µg/mL; in experiment [2] (Staphylococcus aureus ATCC6538), 125 µg/mL; in experiment [3], 62.5 µg/mL; in experiment [4] it was 125 µg/mL; with Cutibacterium acne SK137, 31.2 µg/mL. For the same molecule, the “inhibition of S. aureus (in words)” value in experiment [2] was “less potent than sodium oleyl sulfate”.

In the case of `CCCCCCCCOS(=O)(=O)[O-].[Na+]` [sodium octyl sulfate], the MIC is over 1000 µg/mL in experiment [1]; over 1000 µg/mL in experiment [2] (Staphylococcus aureus ATCC6538); over 500 µg/mL in experiment [3]; over 500 µg/mL in experiment [4]; over 500 µg/mL in the experiment with Cutibacterium acne SK137. In addition, the “inhibition of S. aureus (in words)” value in experiment [2] is reported as “No inhibition”.
